Where a name gives a salt, the structure may show the parent alone.
What follows are compounds tested against T1, human vasopressin V1a receptor subtype (Homo sapiens, UniProt P37288) (assay: Vasopressin binding in CHO cell membranes expressing human vasopressin V1a subtype receptors ([3H]Manning ligand radioligand binding)). Conditions: 100 nM.
T1 construct: host or cells: CHO cells, stably transfected (pZeoSV vector for the Thibonnier line)
Text: Chinese hamster ovary cells (CHO cells) stably transfected with the human vasopressin V1a subtype receptors were either obtained from Biosignal Inc., 1744 rue Williams, Montreal, Quebec, Canada or obtained from M. Thibonnier, Case Western Reserve University School of Medicine, Cleveland, Ohio.
CHO cells transfected with the human vasopressin V1a subtype receptors obtained from M. Thibonnier (pZeoSV vector) are allowed to grow to confluency (approx. >90%) in T-150 flasks under sterile conditions, in a cell culture medium consisting of F-12 Nutrient Mixture (HAM) with L-glutamine (Gibco Cat. #11765-054) containing 15 mM HEPES (Gibco Cat. #15630-080), 1% antibiotic/antimycotic (add 5 mL 100×, Gibco Cat. #15240-062 per 500 mL F-12), 250 μg/mL Zeocin (add 1.25 mL of 100 mg/mL Invitrogen R-250-01 per 500 mL F-12) and 10% Fetal Bovine Serum (Qualified, heat inactivated, Gibco Cat. #16140-063). The medium is removed by aspiration and the cells are washed with 10 mL of Hank's Balanced Salt solution (Gibco Cat. #14175-095). The salt solution is removed by aspiration and the cells are trypsinized with 5 mL of trypsin-EDTA (0.05% trypsin, 0.53 mM EDTA-4Na, Gibco Cat. #25300-070) for 1 min. The trypsin is removed by aspiration and the cells dislodged by tapping. Cell Culture medium (eg, 30 mL for 1:30 split) is immediately added and mixed well to inactivate trypsin. 1 mL of detached cells is added to new culture flasks containing fresh cell culture medium (eg, into 25 mL per T-150 flask), and mixed gently. The cells are incubated at 37° C. in 5% CO2. The medium is changed at 3 to 4 days interval (or as appropriate). The cells grow to confluency (approx. >75%-95%) within 7-8 days. All steps are done under sterile conditions.
The cells are washed twice gently with Hank's Balanced Salt solution (e.g,. use 10 mL per T-150 flask). The excess is removed and the cells are bathed for 15-30 min. in an enzyme-free Cell Dissociation Buffer (e.g. use 8 mL Hank's Based, Gibco Cat. #13150-016 per T-150 flask) until the cells are loosened. The contents are transferred to centrifuge tubes (50 mL) kept in an ice bath. All subsequent steps are done at 4° C. The tubes are centrifuged at 300×g for 15 min (1380 rpm on SORVAL, Model RT6000D, using the rotor for 50 mL tubes). The supernatant is discarded and the cells suspended in homogeneizing buffer (10 mM Tris-HCl containing 0.25 M sucrose and 1 mM EDTA, pH 7.4) ensuring that the volume of the buffer is about ten times the volume of the cell pellet. The cells are pooled into a centrifuge tube (50 mL) and homogenized with Polytron at setting 6 for 10 sec. The homogenate is transferred into a Potter-Elvjehm homogenizer and homogenized with 3 strokes. The homogenate is centrifuged at 1500×g for 10 min at 4° C. (3100 rpm using SORVAL, model RT6000D, using the rotor for 50 mL tubes). The pellet is discarded. The supernatant is centrifuged at 100,000×g for 60 min. at 4° C. (Beckman L8-80M ultracentrifuge; spin at 37,500 rpm with rotor type 70 Ti for 50 mL tubes; 38,000 rpm with type 80Ti for 15 mL tubes; or 35,800 rpm with rotor type 45Ti). The supernantant is discarded and the pellet suspended in 3 to 4 mL of Tris buffer (50 mM TRIS-HCl, pH 7.4). The protein content is estimated by the Bradford or Lowry method. The volume of the membrane suspension is adjusted with the membrane buffer (50 mM Tris-HCl containing 0.1% BSA and 0.1 mM PMSF) to give 3.0 mg/mL (or as appropriate) of protein. The membranes are aliquoted and stored at −70° C.
In wells of a 96-well format microtiter plate, is added 90, 110 or 130 μL (to make up a final volume of 200 μL) of assay buffer containing 50 mM of Tris-HCl (pH 7.4), BSA (heat inactivated, protease-free), […], 1 mg % aprotinin, 1 mg % leupeptin, 2 mg % 1,10-phenanthroline, 10 mg % trypsin inhibitor, and 0.1 mM PMSF. The inhibitors are added on the day of the experiment. […]

T1 sequence (P37288 whole entry): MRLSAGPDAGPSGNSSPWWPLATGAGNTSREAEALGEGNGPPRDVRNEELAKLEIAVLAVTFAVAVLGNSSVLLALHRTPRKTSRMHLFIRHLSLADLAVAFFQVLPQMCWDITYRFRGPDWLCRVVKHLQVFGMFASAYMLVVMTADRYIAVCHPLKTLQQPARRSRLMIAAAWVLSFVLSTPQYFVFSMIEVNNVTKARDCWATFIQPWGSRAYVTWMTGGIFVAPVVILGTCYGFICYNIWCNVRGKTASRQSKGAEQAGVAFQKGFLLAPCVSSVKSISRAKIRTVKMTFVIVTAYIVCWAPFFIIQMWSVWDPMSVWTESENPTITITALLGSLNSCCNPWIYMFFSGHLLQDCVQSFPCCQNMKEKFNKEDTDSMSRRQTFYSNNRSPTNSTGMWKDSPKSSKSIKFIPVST

| inhibition at 0.1 µM [%] | V1a % inhibition @ 100 nM [%] | Compound |
| --- | --- | --- |
| 19 |  | COc1cc(C2=CCCCC2)c(Cl)cc1C(=O)N1Cc2ccc(C(=O)N(C)CCCN(C)C)n2Cc2ccccc21 [Example 2, 10-(5-Chloro-4-cyclohex-1-en-1-yl-2-methoxybenzoyl)-N-[3-(dimethylamino)propyl]-N-methyl-10,11-dihydro-5H-pyrrolo[2,1-c][1,4]benzodiazepine-3-carboxamide] |
| 26 |  | Cc1cc(C(=O)N2Cc3ccc(C(=O)N4CCN(C)CC4)n3Cc3ccccc32)ccc1C1=CCCCC1 [Example 4, [10-(4-Cyclohex-1-en-1-yl-3-methyl-benzoyl)-10,11-dihydro-5H-pyrrolo[2,1-c][1,4]benzodiazepin-3-yl]-(4-methyl-piperazin-1-yl)-methanone] |
| 56 |  | Cc1cc(C(=O)N2Cc3ccc(C(=O)N4CCN(CCCN(C)C)CC4)n3Cc3ccccc32)ccc1C1=CCCCC1 [Example 5, [10-(4-Cyclohex-1-en-1-yl-3-methyl-benzoyl)-10,11-dihydro-5H-pyrrolo[2,1-c][1,4]benzodiazepin-3-yl]-[4-(3-dimethylamino-propyl)-piperazin-1-yl]-methanone] |
| 4 |  | Cc1cc(C(=O)N2Cc3ccc(C(=O)N4CCN(C)CC4)n3Cc3ccccc32)ccc1C1=CCCc2ccccc21 [Example 6, {10-[4-(3,4-Dihydro-naphthalen-1-yl)-3-methyl-benzoyl]-10,11-dihydro-5H-benzo[e]pyrrolo[1,2-a][1,4]diazepin-3-yl}-(4-methyl-piperazin-1-yl)-methanone] |
| 7 |  | Cc1cc(C(=O)N2Cc3ccc(C(=O)N4CCN(CCCN(C)C)CC4)n3Cc3ccccc32)ccc1C1=CCCc2ccccc21 [Example 7, {10-[4-(3,4-Dihydro-naphthalen-1-yl)-3-methyl-benzoyl]-10,11-dihydro-5H-pyrrolo[2,1-c][1,4]benzodiazepin-3-yl}-[4-(3-dimethylamino-propyl)-piperazin-1-yl]-methanone] |
| 52 |  | CC1=C(c2ccc(C(=O)N3Cc4ccc(C(=O)N5CCN(C)CC5)n4Cc4ccccc43)cc2C)CCCC1O (stereo not drawn) [Example 10, [4-(3-Hydroxy-2-methyl-cyclohex-1-en-1-yl)-3-methyl-phenyl]-[3-(4-methyl-piperazine-1carbonyl)-10,11-dihydro-5H-pyrrolo[2,1-c][1,4]benzodiazepin-10-yl]-methanone] |
| 26 |  | CC1=C(c2ccc(C(=O)N3Cc4ccc(C(=O)N5CCN(C)CC5)n4Cc4ccccc43)cc2C)CCC[C@H]1O [Example 11, [4-((3R)-3-Hydroxy-2-methyl-cyclohex-1-en-1-yl)-3-methyl-phenyl]-[3-(4-methyl-piperazine-1-carbonyl)-10,11-dihydro-5H-pyrrolo [2,1-c][1,4]benzodiazepin-10-yl]-methanone] |
|  | 34 | Cc1cc(C(=O)N2Cc3ccc(C(=O)N4CCCN(C)CC4)n3Cc3ccccc32)ccc1C1=CCCCC1 [Example 13, {10-[4-(1-Cyclohex-1-en-1-yl)-3-methylbenzoyl]-10,11-dihydro-5H-pyrrolo[2,1-c][1,4]benzodiazepin-3-yl}(4-methyl-1,4-diazepan-1-yl)methanone] |
|  | 24 | Cc1cc(C(=O)N2Cc3ccc(C(=O)NCCCN(C)C)n3Cc3ccccc32)ccc1C1=CCCCC1 [Example 14, 10-[4-(1-Cyclohex-1-en-1-yl)-3-methylbenzoyl]-N-[3-(dimethylamino)propyl]-10,11-dihydro-5H-pyrrolo[2,1-c][1,4]benzodiazepine-3-carboxamide] |
|  | 71 | Cc1cc(C(=O)N2Cc3ccc(C(=O)N(C)CCN(C)C)n3Cc3ccccc32)ccc1C1=CCCCC1 [Example 15, 10-[4-(1-Cyclohex-1-en-1-yl)-3-methylbenzoyl]-N-[2-(dimethylamino)ethyl]-N-methyl-10,11-dihydro-5H-pyrrolo[2,1-c][1,4]benzodiazepine-3-carboxamide] |
|  | 55 | Cc1cc(C(=O)N2Cc3ccc(C(=O)N(C)CCCN(C)C)n3Cc3ccccc32)ccc1C1=CCCCC1 [Example 16, 10-[4-(1-Cyclohex-1-en-1-yl)-3-methylbenzoyl]-N-[3-(dimethylamino)propyl]-N-methyl-10,11-dihydro-5H-pyrrolo[2,1-c][1 ,4]benzodiazepine-3-carboxamide] |
|  | 30 | Cc1cc(C(=O)N2Cc3ccc(C(=O)N4CCC(N5CCCCC5)CC4)n3Cc3ccccc32)ccc1C1=CCCCC1 [Example 17, {10-[4-(1-Cyclohex-1-en-1-yl)-3-methylbenzoyl]-10,11-dihydro-5H-pyrrolo[2,1-c][1,4]benzodiazepin-3-yl}[4-(1-piperidinyl)-1-piperidinyl]methanone] |
|  | 7 | Cc1cc(C(=O)N2Cc3ccc(C(=O)NCCCn4ccnc4)n3Cc3ccccc32)ccc1C1=CCCCC1 [Example 18, 10-[4-(1-Cyclohex-1-en-1-yl)-3-methylbenzoyl]-N-[3-(1H-imidazol-1-yl)propyl]10,11-dihydro-5H-pyrrolo[2,1-c][1,4]benzodiazepine-3-carboxamide] |
|  | 33 | Cc1cc(C(=O)N2Cc3ccc(C(=O)N4CCC(N5CCCC5)CC4)n3Cc3ccccc32)ccc1C1=CCCCC1 [Example 19, {10-[4-(1-Cyclohex-1-en-1-yl)-3-methylbenzoyl]-10,11-dihydro-5H-pyrrolo[2,1c][1,4]benzodiazepin-3-yl}[4-(1-pyrrolidinyl)-1-piperidinyl]methanone] |
|  | 23 | Cc1cc(C(=O)N2Cc3ccc(C(=O)NCCN4CCCCC4)n3Cc3ccccc32)ccc1C1=CCCCC1 [Example 20, 10-[4-(1-Cyclohex-1-en-1-yl)-3-methylbenzoyl]-N-[2-(1-piperidinyl)ethyl]-10,11-dihydro-5H-pyrrolo[2,1-c][1,4]benzodiazepine-3-carboxamide] |
|  | 28 | Cc1cc(C(=O)N2Cc3ccc(C(=O)NCCC4CCCN4C)n3Cc3ccccc32)ccc1C1=CCCCC1 (stereo not drawn) [Example 21, 10-[4-(1-Cyclohex-1-en-1-yl)-3-methylbenzoyl]-N-[2-(1-methyl-2-pyrrolidinyl)ethyl]-10,11-dihydro-5H-pyrrolo[2,1-c][1,4]benzodiazepine-3-carboxamide] |

Same assay, conditions: value in parentheses

| IC50 [µM] | Compound |
| --- | --- |
| 1.28 | COc1cc(C2=CCCCC2)c(Cl)cc1C(=O)N1Cc2ccc(C(=O)N3CCC[C@H]3CN3CCCC3)n2Cc2ccccc21 [Example 1, 4-Chloro-5-cyclohex-1-en-1-yl-2-[(3-{[(2S)-2-(pyrrolidin-1-ylmethyl)pyrrolidin-1-yl]carbonyl}-5H-pyrrolo [2,1-c][1,4]benzodiazepin-10(11H)-yl)carbonyl]phenyl methyl ether] |
| 0.977 | COc1cc(C2=CCCCC2)c(Cl)cc1C(=O)N1Cc2ccc(C(=O)N(C)CCCN(C)C)n2Cc2ccccc21 [Example 3, 10-(5-Chloro-4-cyclohex-1-en-1-yl-2-methoxybenzoyl)-N-[3-(dimethylamino)propyl]-N-methyl-10,11-dihydro-5H-pyrrolo[2,1-c][1,4]benzodiazepine-3-carboxamide citric acid salt] |

From patent US7326700B2, “Cyclohexenyl phenyl carboxamides tocolytic oxytocin receptor antagonists” (Wyeth, priority 2001, dated 2008)
